From US20220289794A1, “SYNTHETIC ANTIMICROBIAL PEPTIDES” (priority 2019, published 2022)
≈ marks a conversion by molar mass, not a printed value. Where “and” joins values, the source holds several entries; their conditions need not be identical. Equal entries are not always repeated. Where two headings read alike, the source gives them in different places. Non-standard residues stand in square brackets, D forms with d. Residues, ends and D or L forms follow the SMILES beside them. 2Nal = N[C@@H](Cc1ccc2ccccc2c1)C(=O)O

How the values were obtained:
[1] = tested on: Clostridium difficile (ATCC 700057); assay: MIC determination, broth microdilution (CLSI); format: cell-based
[2] = tested on: Escherichia coli (ATCC 25922); details: ATCC 25922
[3] = tested on: Methicillin-resistant Staphylococcus aureus MRSA (ATCC BAA-1556); details: ATCC BAA-1556
human red blood cells = tested on: human red blood cells; design: unit not given beside the values
[4] = tested on: P. aeruginosa strain ATCC 47085 biofilm
Description: (§3) Bacteria. The bacterial strains employed in these assays were obtained from the American Type Culture Collection (ATCC). Each strain was propagated as recommended by the ATCC and each strain was stored as a frozen glycerol stock at −80° C.
(§4) Bacterial Propagation. […] Following the incubation, the culture was diluted to an optical density 625 nm (OD625) of 0.1 in cation adjusted Mueller Hinton Broth (CAMHB), which is equivalent to 1×10^8 CFU/mL. The culture was further diluted to 1×10^6 CFU/mL which was used for the assay.
(§5) Determination of the Temporal Effects of SPL7013 Addition to Inhibit Biofilm Formation. Each strain of bacteria was adjusted to a concentration of 1×10^6 CFU/mL and added to a 96-well flat-bottomed plate in a volume of 100 mL. One-hundred microliters (100 mL) of each compound at 10 concentrations was added in triplicate wells. The cultures were incubated for 24 hours at 37° C. under the appropriate growth conditions for each organism. Following the incubation, the media was removed, and the formed biofilms were fixed for 1 hour at 60° C. Two-hundred microliters (200 mL) of 0.06% crystal violet was added to the wells for 5 to 10 minutes and the wells were then gently washed three times with deionized H2O to remove the crystal violet. Following crystal violet staining 200 mL of 70% ethanol was added to the wells.

[5] = tested on: Staphylococcus aureus ATCC 33592 (MRSA) biofilm
Description: as §3, §4, §5

[6] = tested on: Pseudomonas aeruginosa (ATCC 27883); details: ATCC 27883
S. aureus ATCC 29213 = details: ATCC 29213
[7] = tested on: Clostridium difficile (NAP1/027); assay: MIC determination, broth microdilution (CLSI); format: cell-based
[8] = tested on: Pseudomonas aeruginosa (PSA, ATCC 27883); details: antibiotics alone and PHY-MIX (1:1 w/w)
MRSA [9] = assay: microbe, parasite or virus in culture; details: Staphylococcus aureus, ATCCBAA1556 / MRSA, read-out: MIC MRSA (ATCC BAA-1556)
[10] = tested on: Pseudomonas aeruginosa (ATCC 27883); assay: microbe, parasite or virus in culture
[11] = tested on: Pseudomonas aeruginosa (PSA, ATCC 27883); assay: Synergy checkerboard assay (FIC index); format: cell-based; details: ATCC27883, 24 h; Table 25; Pseudomonas aeruginosa (ATCC 27883); antibiotic alone
[12] = tested on: Pseudomonas aeruginosa (PSA, ATCC 27883); assay: microbe, parasite or virus in culture; details: ATCC27883, 24 h, read-out: Pseudomonas aeruginosa (ATCC 27883) MIC
[13] = tested on: Klebsiella pneumoniae (KPC, ATCC BAA-1705); assay: microbe, parasite or virus in culture; details: ATCCBAA1705, 24 h, read-out: MIC of antibiotic
KPC = details: Table 37; peptides and peptide-capped gold nanoparticles
[14] = tested on: Escherichia coli (E. Coli, ATCC 25922); assay: microbe, parasite or virus in culture; details: ATCC25922, 24 h, read-out: Escherichia coli (ATCC 25922) MIC
[15] = tested on: Klebsiella pneumoniae (ATCC BAA-1705); assay: microbe, parasite or virus in culture
[16] = tested on: Klebsiella pneumoniae (KPC, ATCC BAA-1705); assay: microbe, parasite or virus in culture; details: ATCCBAA1705, 24 h
[17] = tested on: Methicillin-resistant Staphylococcus aureus MRSA (ATCC BAA-1556); assay: microbe, parasite or virus in culture; details: read-out: MIC MRSA (ATCC BAA-1556)
PSA = details: Table 37; peptides and peptide-capped gold nanoparticles
[18] = tested on: Staphylococcus aureus ATCC 33592 (MRSA) biofilm; assay: microbe, parasite or virus in culture; details: read-out: inhibition of biofilm formation
Description: as §3, §4, §5

[19] = tested on: Escherichia coli (E. Coli, ATCC 25922); details: antibiotics alone and PHY-MIX (1:1 w/w)
[20] = tested on: Escherichia coli (ATCC 25922); assay: microbe, parasite or virus in culture
E. coli [21] = details: Table 37; peptides and peptide-capped gold nanoparticles
[22] = tested on: Klebsiella pneumoniae (KPC, ATCC BAA-1705); details: Klebsiella pneumoniae (ATCC BAA-1705); antibiotic alone
MRSA [23] = assay: In vivo Galleria Mellonella Assay (MRSA infection); details: MRSA-infected G. mellonella, after one week
[24] = tested on: Pseudomonas aeruginosa (PA01); details: previously shown (Oh et al. 2014), listed as [W4R4]; cited from earlier work
[25] = tested on: Methicillin-Resistant Staphylococcus aureus (MRSA); details: previously shown (Oh et al. 2014), listed as [W4R4]; cited from earlier work
[26] = tested on: Methicillin-resistant Staphylococcus aureus MRSA (ATCC BAA-1556); format: cell-based
Description: (§1) All bacteria pathogens tested clinically reported multi-drug resistant strains. The antibacterial activity was tested against Gram-negative strains namely; Pseudomonas aeruginosa (PSA), Klebsiella pneumoniae (KPC), Escherichia coli (E. coli) and Gram-positive Methicillin-resistant Staphylococcus aureus (MRSA). The minimum inhibitory concentration (MIC) is the lowest concentration of the antibiotic that inhibits microbial growths. MIC is determined by visual inspection or use of spectrophotometer plate reader to determine media turbidity. On the other hand, the minimum bactericidal concentration (MBC) is the lowest concentration that kills […] of bacterial growth. Cytotoxicity of peptides in the hepatic cell line, human skin fibroblast cell line, heart/myocardium cells, and human lung fibroblast cells is shown in FIGS. 36-46). […] (IFX-315)-Au-NP with antibiotics are shown in FIGS. 49-58 when the gold nanoparticles are formed by the peptide followed by addition of the antibiotic. […] (IFX-301) with antibiotics (1:1 ratio) first and then used in the synthesis of Au-NP in antibacterial activities is shown in FIGS. 59-68.
(§2) The MBC is identified by determining the lowest concentration of antibacterial agent that reduces the viability (concentration of peptides necessary to achieve a bactericidal effect) of the initial bacterial inoculum by ≥99.9%.

[27] = tested on: Klebsiella pneumoniae (ATCC BAA-1705); format: cell-based
Description: as §1, §2

[28] = tested on: Pseudomonas aeruginosa (ATCC 27883); format: cell-based; details: Table 22
Description: as §1, §2

[29] = tested on: Escherichia coli (ATCC 25922); format: cell-based
Description: as §1, §2

[30] = tested on: Klebsiella pneumoniae (ATCC BAA-1705); details: ATCC BAA-1705
E. coli [31] = details: cited from earlier work
[32] = tested on: Methicillin-Resistant Staphylococcus aureus (MRSA); details: cited from earlier work

N=C(N)NCCC[C@H](NC(=O)[C@H](CCCNC(=N)N)NC(=O)[C@H](CCCNC(=N)N)NC(=O)[C@@H](N)CCCNC(=N)N)C(=O)N[C@@H](Cc1ccc2ccccc2c1)C(=O)N[C@@H](Cc1ccc2ccccc2c1)C(=O)N[C@@H](Cc1c[nH]c2ccccc12)C(=O)O [IFX-031-1, NH2-R-R-R-R-NaI-NaI-Trp-OH] (H-RRRR[2Nal][2Nal]W-OH)
MIC90 [1]: 25 µg/mL (≈ 20.4 µM)
MIC95 [1]: 25 µg/mL (≈ 20.4 µM)
MIC99 [1]: 25 µg/mL (≈ 20.4 µM)
MIC E. coli ATCC 25922 [2]: 25 µg/mL (≈ 20.4 µM)
MIC MRSA ATCC BAA-1556 [3]: 6.2 µg/mL (≈ 5.07 µM)
HC50 (human red blood cells): 450
ability to prevent biofilm formation [4]: able to inhibit biofilm formation
ability to prevent biofilm formation [5]: able to inhibit biofilm formation
MIC P. aeruginosa ATCC 27883 [6]: 25 µg/mL (≈ 20.4 µM)
MIC S. aureus ATCC 29213 (S. aureus ATCC 29213): 6.2 µg/mL (≈ 5.07 µM)
MIC90 [7]: 25 µg/mL (≈ 20.4 µM)
MIC95 [7]: > 50 µg/mL
MIC99 [7]: 25 µg/mL (≈ 20.4 µM)

CN[C@H](CC(C)C)C(=O)N[C@H]1C(=O)N[C@@H](CC(N)=O)C(=O)N[C@H]2C(=O)N[C@H]3C(=O)N[C@H](C(=O)N[C@H](C(=O)O)c4cc(O)cc(O)c4-c4cc3ccc4O)[C@H](O)c3ccc(c(Cl)c3)Oc3cc2cc(c3O[C@@H]2O[C@H](CO)[C@@H](O)[C@H](O)[C@H]2O[C@H]2C[C@](C)(N)[C@H](O)[C@H](C)O2)Oc2ccc(cc2Cl)[C@H]1O [Vancomycin, reference compound]
MIC90 [1]: 0.63 µg/mL (≈ 0.435 µM)
MIC95 [1]: 0.63 µg/mL (≈ 0.435 µM)
MIC99 [1]: 0.63 µg/mL (≈ 0.435 µM)
Pseudomonas aeruginosa (ATCC 27883) MIC ([8]; Table 29, [R6W4] (IFX-318)): >64 µg/mL
Pseudomonas aeruginosa (ATCC 27883) MIC ([8]; Table 30, [R5W4K] (IFX-315)): >64 µg/mL
Pseudomonas aeruginosa (ATCC 27883) MIC ([8]; Table 31, [R5W4] (IFX-301)): >64 µg/mL
MIC (MRSA [9]): 0.5 µg/mL (≈ 0.345 µM)
MIC ([10]; ATCC27883, read-out: MIC P. aeruginosa ATCC 27883): > 256 µg/mL
MIC ([10]; ATCC27883, read-out: PSA (ATCC 27883 MIC)): > 512 µg/mL
MIC [11]: > 256 µg/mL
MIC [12]: > 64 µg/mL
MIC [13]: > 256 µg/mL
MIC Klebsiella pneumoniae (ATCC BAA-1705) (KPC): No effect
MIC [14]: > 64 µg/mL
MIC ([15]; ATCCBAA1705, read-out: KPC (ATCC BAA-1705) MIC): > 512 µg/mL
MIC ([15]; ATCCBAA1705, read-out: MIC K. pneumoniae (ATCC BAA-1705)): > 256 µg/mL
MIC ([16]; read-out: Klebsiella pneumoniae (ATCC BAA-1705) MIC, Table 28, IFX-031, antibiotics alone and PHY-MIX (1:1 w/w)): > 256 µg/mL
MIC ([16]; read-out: Klebsiella pneumoniae (ATCC BAA-1705) MIC, Table 29, [R6W4] (IFX-318), antibiotics alone and PHY-MIX (1:1 w/w)): > 256 µg/mL
MIC ([16]; read-out: Klebsiella pneumoniae (ATCC BAA-1705) MIC, Table 30, [R5W4K] (IFX-315), antibiotics alone and PHY-MIX (1:1 w/w)): > 256 µg/mL
MIC ([16]; read-out: Klebsiella pneumoniae (ATCC BAA-1705) MIC, Table 31, [R5W4] (IFX-301), antibiotics alone and PHY-MIX (1:1 w/w)): > 64 µg/mL
MIC [17]: 0.5 µg/mL (≈ 0.345 µM)
MIC Pseudomonas aeruginosa (ATCC 27883) (PSA): No effect
inhibition of biofilm formation ([5]; all other concentrations ([…] to 0.001 μg/mL)): approximately 50%
inhibition at 5000 µg/mL [18]: ~97%
Escherichia coli (ATCC 25922) MIC ([19]; Table 29, [R6W4] (IFX-318)): >64 µg/mL
Escherichia coli (ATCC 25922) MIC ([19]; Table 30, [R5W4K] (IFX-315)): >64 µg/mL
Escherichia coli (ATCC 25922) MIC ([19]; Table 31, [R5W4] (IFX-301)): >64 µg/mL
MIC ([20]; ATCC25922, read-out: E. coli (ATCC 25922) MIC): > 512 µg/mL
MIC ([20]; ATCC25922, read-out: MIC E. coli (ATCC 25922)): > 256 µg/mL
MIC90 [7]: 0.31 µg/mL (≈ 0.214 µM)
MIC95 [7]: 0.31 µg/mL (≈ 0.214 µM)
MIC99 [7]: 0.31 µg/mL (≈ 0.214 µM)
MIC Escherichia coli (ATCC 25922) (E. coli [21]): No effect
MIC of antibiotic [22]: > 256 µg/mL

N=C(N)NCCC[C@@H]1NC(=O)[C@H](CCCNC(=N)N)NC(=O)[C@H](CCCNC(=N)N)NC(=O)[C@H](Cc2c[nH]c3ccccc23)NC(=O)[C@H](Cc2c[nH]c3ccccc23)NC(=O)[C@H](Cc2c[nH]c3ccccc23)NC(=O)[C@H](Cc2c[nH]c3ccccc23)NC(=O)[C@H](CCCNC(=N)N)NC1=O [[R4W4], reference compound] (cyclo(RRRRWWWW))
larvae killed (MRSA [23]): all
E. coli (ATCC 25922) MIC [2]: 16 µg/mL
MIC [24]: 42.8 μg/mL and 31.3 μM
MRSA (ATCC BAA-1556) MIC [3]: 4 µg/mL
MIC [25]: 2.67 μg/mL and 1.95 μM
MRSA (ATCC BAA-1556) MBC [26]: 32 µg/mL
KPC (ATCC BAA-1705) MBC [27]: 64 µg/mL
PSA (ATCC 27883) MBC [28]: 128 µg/mL
E. coli (ATCC 25922) MBC [29]: 32 µg/mL
PSA (ATCC 27883 MIC) [6]: 64 µg/mL
KPC (ATCC BAA-1705) MIC [30]: 32 µg/mL
interaction with tetracycline in time-kill assays (E. coli [31]): synergistically
interaction with tetracycline in time-kill assays [32]: synergistically
